Test results: patent US11590116B2 (THERAVANCE BIOPHARMA R&D IP, LLC, priority 2019, dated 2023)

Legend:
[1] = test system: TGF-β-stimulated SMAD3 phosphorylation in BEAS-2B cells; assay: Cellular ALK5 potency assay, inhibition of TGF-β stimulated pSMAD3 formation in BEAS-2B cells; type: cell-based; conditions: Homo sapiens; inhibition of TGF-β stimulated pSMAD3 formation, BEAS-2B cells; read-out: BEAS2B pIC50 (converted)
In short: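 BEAS-2B human lung epithelial cells pre-treated 1 h at 37° C with compound in HBSS/25 mM HEPES/1% BSA, then stimulated 30 min with 10 ng/mL TGF-β (final). Lysates assayed for pSMAD3 by AlphaLISA; pIC50 from dose-dependent change versus stimulated untreated cells.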

[2] = molecular target: T1, recombinant human ALK5 (TGF-βR1) protein (Homo sapiens, UniProt P36897); assay: Biochemical ALK5 (TGF-βR1) assay to measure pKi (LANCE Ultra ULight kinase assay); conditions: apparent pKi from pIC50 by Cheng-Prusoff, read-out: ALK5 pKi (converted)
T1 construct: purchased Life Technologies PR9075A
T1 sequence (P36897 34-503): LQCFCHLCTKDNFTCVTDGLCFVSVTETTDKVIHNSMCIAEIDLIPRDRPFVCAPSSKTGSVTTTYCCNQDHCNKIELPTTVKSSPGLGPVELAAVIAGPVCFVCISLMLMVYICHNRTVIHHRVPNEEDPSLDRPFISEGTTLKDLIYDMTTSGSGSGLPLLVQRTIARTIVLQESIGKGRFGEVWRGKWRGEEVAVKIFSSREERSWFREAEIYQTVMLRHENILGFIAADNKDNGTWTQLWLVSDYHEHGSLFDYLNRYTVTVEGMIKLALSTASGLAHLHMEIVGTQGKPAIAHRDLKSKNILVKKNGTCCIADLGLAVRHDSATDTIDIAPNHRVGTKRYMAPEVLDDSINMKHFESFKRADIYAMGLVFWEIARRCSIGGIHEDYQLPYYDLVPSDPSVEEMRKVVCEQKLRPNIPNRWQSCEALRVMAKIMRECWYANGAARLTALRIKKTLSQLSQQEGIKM
In short: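 Compounds (10 μM to 25 pM) were preincubated 60 min at room temperature with enzyme, then reactions were started with ATP (125 μM stock, 5× final) and run 60 min at 37 °C. EDTA-containing Eu-anti-phospho-Topo IIα (Thr1342) antibody stopped the reaction; TR-FRET read at 665 nm. pIC50 from 4-parameter fit, converted to pKi via Cheng-Prusoff.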

Row | Ki [2] [nM] | SMILES | IC50 [1] [nM]
1 | 0.0398 to 0.316 | Cc1cccc(-c2[nH]cnc2-c2ccc3ncc(N4CC5(CC(N)C5)C4)cc3c2)n1 [Compound 624, 2-[6-[5-(6-methyl-2-pyridyl)-1H-imidazol-4-yl]-3-quinolyl]-2-azaspiro[3.3]heptan-6-amine] | 25.1 to 158
2 | 0.0398 to 0.316 | Cc1cccc(-c2n[nH]cc2-c2ccc3ncc(NC(=O)CN4CCN(C(C)C)CC4)cc3n2)n1 [Compound 625, 2-(4-isopropylpiperazin-1-yl)-N-[6-[3-(6-methyl-2-pyridyl)-1H-pyrazol-4-yl]-1,5-naphthyridin-3-yl]acetamide] | 25.1 to 158
3 | < 0.0316 | Cc1cccc(-c2n[nH]cc2-c2ccc3ncc(N4CCC(N)C4)cc3n2)n1 (stereo not drawn) [Compound 626, 1-[6-[3-(6-methyl-2-pyridyl)-1H-pyrazol-4-yl]-1,5-naphthyridin-3-yl]pyrrolidin-3-amine] | 25.1 to 158
4 | 0.0398 to 0.316 | Cc1cccc(-c2[nH]cnc2-c2ccc3ncc(NCCN4CCCC4(C)C)cc3n2)n1 [Compound 627, N-[2-(2,2-dimethylpyrrolidin-1-yl)ethyl]-6-[5-(6-methyl-2-pyridyl)-1H-imidazol-4-yl]-1,5-naphthyridin-3-amine] | 25.1 to 158
5 | < 0.0316 | CNCCn1cc(-c2cnc3ccc(-c4c(-c5cccc(C)n5)nnn4C)cc3c2)cn1 [Compound 628, N-methyl-2-(4-(6-(1-methyl-4-(6-methylpyridin-2-yl)-1H-1,2,3-triazol-5-yl)quinolin-3-yl)-1H-pyrazol-1-yl)ethan-1-amine] | 25.1 to 158
6 | < 0.0316 | Cc1cccc(-c2[nH]cnc2-c2ccc3ncc(C4=CCC(N(C)C)CC4)cc3c2)n1 (stereo not drawn) [Compound 629, N,N-dimethyl-4-(6-(5-(6-methylpyridin-2-yl)-1H-imidazol-4-yl)quinolin-3-yl)cyclohex-3-en-1-amine] | 25.1 to 158
7 | 0.398 to 3.16 | CNCCn1cc(-c2cnc3ccc(-c4c(-c5cccc(C)n5)nnn4CC(=O)O)nc3c2)cn1 [Compound 630, 2-[5-[7-[1-[2-(methylamino)ethyl]pyrazol-4-yl]-1,5-naphthyridin-2-yl]-4-(6-methyl-2-pyridyl)triazol-1-yl]acetic acid] | 1580 to 10000
8 | 3.98 to 31.6 | Cc1nc(-c2n[nH]cc2-c2ccc3ncc(-c4nnc5n4CCNC5)cc3n2)ccc1F [Compound 631, 2-[3-(5-fluoro-6-methyl-2-pyridyl)-1H-pyrazol-4-yl]-7-(5,6,7,8-tetrahydro-[1,2,4]triazolo[4,3-a]pyrazin-3-yl)-1,5-naphthyridine] | 1580 to 10000
9 | 0.0398 to 0.316 | CNCCn1cc(-c2cnc3ccc(-c4c(-c5cccc(C)n5)nn5c4NCC5)cc3c2)cn1 [Compound 632, N-methyl-2-[4-[6-[6-(6-methyl-2-pyridyl)-2,3-dihydro-1H-imidazo[1,2-b]pyrazol-7-yl]-3-quinolyl]pyrazol-1-yl]ethanamine] | 25.1 to 158
10 | 0.398 to 3.16 | Cc1cccc(-c2n[nH]cc2-c2ccc3ncc(CNCCN4CCOCC4)cc3n2)n1 [Compound 633, N-[[6-[3-(6-methyl-2-pyridyl)-1H-pyrazol-4-yl]-1,5-naphthyridin-3-yl]methyl]-2-morpholino-ethanamine] | 25.1 to 158
11 | < 0.0316 | CNCCn1cc(-c2cnc3ccc(-c4c[nH]nc4-c4ccc(F)c(C)n4)cc3c2)cn1 [Compound 634, 2-[4-[6-[3-(5-fluoro-6-methyl-2-pyridyl)-1H-pyrazol-4-yl]-3-quinolyl]pyrazol-1-yl]-N-methyl-ethanamine] | < 20
12 | 0.0398 to 0.316 | Cc1cccc(-c2nc3n(c2-c2ccc4ncc(-c5cn[nH]c5)cc4c2)CCNC3)n1 [Compound 635, 6-(2-(6-methylpyridin-2-yl)-5,6,7,8-tetrahydroimidazo[1,2-a]pyrazin-3-yl)-3-(1H-pyrazol-4-yl)quinoline] | 200 to 1260
13 | 0.0398 to 0.316 | Cc1cccc(-c2[nH]cnc2-c2ccc3ncc(-c4cccc5c4CNC5)cc3c2)n1 [Compound 636, 3-isoindolin-4-yl-6-[5-(6-methyl-2-pyridyl)-1H-imidazol-4-yl]quinoline] | 25.1 to 158
14 | 0.0398 to 0.316 | Cc1cccc(-c2n[nH]cc2-c2ccc3ncc(N4CCN(CCNC(C)C)CC4)cc3n2)n1 [Compound 637, N-[2-[4-[6-[3-(6-methyl-2-pyridyl)-1H-pyrazol-4-yl]-1,5-naphthyridin-3-yl]piperazin-1-yl]ethyl]propan-2-amine] | 25.1 to 158
15 | 0.0398 to 0.316 | Cc1cccc(-c2n[nH]cc2-c2ccc3ncc(N4CCCN(C5CCNCC5)CC4)cc3n2)n1 [Compound 638, 2-[3-(6-methyl-2-pyridyl)-1H-pyrazol-4-yl]-7-[4-(4-piperidyl)-1,4-diazepan-1-yl]-1,5-naphthyridine] | 1580 to 10000
16 | < 0.0316 | Cc1cccc(-c2n[nH]cc2-c2ccc3ncc(N4CCN(CCO)CC4)cc3n2)n1 [Compound 639, 2-[4-[6-[3-(6-methyl-2-pyridyl)-1H-pyrazol-4-yl]-1,5-naphthyridin-3-yl]piperazin-1-yl]ethanol] | 25.1 to 158
17 | 0.0398 to 0.316 | Cc1cccc(-c2[nH]cnc2-c2ccc3ncc(N4CCN(C)C(CC(=O)OCC5CNC5)C4)cc3c2)n1 (stereo not drawn) [Compound 640, azetidin-3-ylmethyl 2-[1-methyl-4-[6-[5-(6-methyl-2-pyridyl)-1H-imidazol-4-yl]-3-quinolyl]piperazin-2-yl]acetate] | 1580 to 10000
18 | 0.0398 to 0.316 | Cc1cccc(-c2n[nH]cc2-c2ccc3ncc(-c4ncc5n4CCN5)cc3n2)n1 [Compound 641, 7-(2,3-dihydro-1H-imidazo[1,5-a]imidazol-5-yl)-2-[3-(6-methyl-2-pyridyl)-1H-pyrazol-4-yl]-1,5-naphthyridine] | 25.1 to 158
19 | 0.0398 to 0.316 | Cc1cccc(-c2n[nH]cc2-c2ccc3ncc(-c4nc5c([nH]4)CCNCC5)cc3n2)n1 [Compound 642, 2-[6-[3-(6-methyl-2-pyridyl)-1H-pyrazol-4-yl]-1,5-naphthyridin-3-yl]-1,4,5,6,7,8-hexahydroimidazo[4,5-d]azepine] | 200 to 1260
20 | 0.398 to 3.16 | CCNC(=O)C1CCN(CCNc2cnc3ccc(-c4nc[nH]c4-c4cccc(C)n4)cc3c2)CC1 [Compound 643, N-ethyl-1-[2-[[6-[5-(6-methyl-2-pyridyl)-1H-imidazol-4-yl]-3-quinolyl]amino]ethyl]piperidine-4-carboxamide] | 25.1 to 158
21 | < 0.0316 | Cc1cccc(-c2[nH]cnc2-c2ccc3ncc(-c4cn[nH]c4)cc3n2)n1 [Compound 644, 2-(5-(6-methylpyridin-2-yl)-1H-imidazol-4-yl)-7-(1H-pyrazol-4-yl)-1,5-naphthyridine] | < 20
22 | 0.0398 to 0.316 | Cc1cccc(-c2[nH]cnc2-c2ccc3ncc(-c4cn5c(n4)CNCC5)cc3c2)n1 [Compound 645, 6-[5-(6-methyl-2-pyridyl)-1H-imidazol-4-yl]-3-(5,6,7,8-tetrahydroimidazo[1,2-a]pyrazin-2-yl)quinoline] | 200 to 1260
23 | 0.0398 to 0.316 | Cc1cccc(-c2nc3ccccn3c2-c2ccc3ncc(N4CCCNCC4)cc3n2)n1 [Compound 646, 7-(1,4-diazepan-1-yl)-2-[2-(6-methyl-2-pyridyl)imidazo[1,2-a]pyridin-3-yl]-1,5-naphthyridine] | 25.1 to 158
24 | 0.0398 to 0.316 | Cc1cccc(-c2[nH]cnc2-c2ccc3ncc(N4CC(N(C)C)C4)cc3c2)n1 [Compound 648, N,N-dimethyl-1-[6-[5-(6-methyl-2-pyridyl)-1H-imidazol-4-yl]-3-quinolyl]azetidin-3-amine] | 25.1 to 158
